{"source": "patent US20100099756A1", "about": "“USES OF INCENSOLE, INCENSOLE ACETATE AND DERIVATIVES THEREOF” (YISSUM RESEARCH DEVELOPMENT COMPANY OF THE HEBREW …, priority 2006, published 2010)", "key": {"immobility": {"tested_on": "immobility", "assay": "Porsolt forced swimming test", "type": "in vivo, female Sabra mice", "conditions": "recorded over 9 minutes, 50 mg/kg i.p."}, "c-Fos": {"tested_on": "c-Fos", "assay": "c-Fos immunoreactivity in mouse brain", "type": "in vivo, female Sabra mice", "conditions": "50 mg/kg i.p., 60 min after administration", "from_the_text": "The drawings were modified from plates 30; 38,45, 89 respectively from Paxinos and Franklin (2001). The atlas sections are arranged from anterior a to posterior d. The number under each section indicates its distance (mm) from the bregma. “A” is anterior to bregma and “P” is posterior to bregma.\nFor analysis of c-Fos immunoreactivity, positive nuclei were identified based on their round form and optical density at least twice that of background. The numbers of c-Fos immunoreactive nuclei from the right and left hemispheres were averaged to obtain a representative number for the given region from each mouse. Student t tests were performed comparing the control (vehicle) with the IA group.\nThe effect of IA on different brain regions were studied by looking at the effect of IA on c-Fos immunoreactivity in mice brains 60 min after administration of IA (50 mg/kg; i.p.). The c-Fos transcription factor is a product of an immediate early gene and its increase serves as a marker of enhanced neuronal activity. It is thus used in histological sections to map out brain regions that are activated or attenuated after treatment with psychoactive drugs [Werme, M., Ringholm, A., Olson, L. & Brene S. Differential patterns of induction of NGFI-B, Norl and c-fos mRNAs in striatal subregions by haloperidol and clozapine. Brain Res. 863, 112-119 (2000); and Dragunow, M., Robertson, G. S., Faull, R. L., Robertson, H. A. & Jansen, K. D2 dopamine receptor antagonists induce fos and related proteins in rat striatal neurons. (1990) Neuroscience 37, 287-294]. […] The central nucleus of the amygdala and the lateral septum play major roles in the expression of emotions [Thompson, B. L. & Rosen, J. B. Immediate-early gene expression in the central nucleus of the amygdala is not specific for anxiolytic or anxiogenic drugs. Neuropharmacology 50, 57-68 (2006); and Henry, B., Vale, W. & Markou, A. The effect of lateral septum corticotropin-releasing factor receptor 2 activation on anxiety is modulated by stress. J. Neurosci. 26, 9142-9152 (2006)]; it is assumed that c-Fos expression in the central nucleus of the amygdala is due to circuits that are engaged by both anxiolytic and anxiogenic drugs [Thompson, B. L. & Rosen, J. B. Immediate-early gene expression in the central nucleus of the amygdala is not specific for anxiolytic or anxiogenic drugs. Neuropharmacology 50, 57-68 (2006).]"}, "mouse TRPV3-YFP": {"target": "T1, mouse TRPV3-YFP (Mus musculus, UniProt Q8K424)", "T1 construct": "expressed in transfected cells", "T1 sequence (Q8K424 1-791)": "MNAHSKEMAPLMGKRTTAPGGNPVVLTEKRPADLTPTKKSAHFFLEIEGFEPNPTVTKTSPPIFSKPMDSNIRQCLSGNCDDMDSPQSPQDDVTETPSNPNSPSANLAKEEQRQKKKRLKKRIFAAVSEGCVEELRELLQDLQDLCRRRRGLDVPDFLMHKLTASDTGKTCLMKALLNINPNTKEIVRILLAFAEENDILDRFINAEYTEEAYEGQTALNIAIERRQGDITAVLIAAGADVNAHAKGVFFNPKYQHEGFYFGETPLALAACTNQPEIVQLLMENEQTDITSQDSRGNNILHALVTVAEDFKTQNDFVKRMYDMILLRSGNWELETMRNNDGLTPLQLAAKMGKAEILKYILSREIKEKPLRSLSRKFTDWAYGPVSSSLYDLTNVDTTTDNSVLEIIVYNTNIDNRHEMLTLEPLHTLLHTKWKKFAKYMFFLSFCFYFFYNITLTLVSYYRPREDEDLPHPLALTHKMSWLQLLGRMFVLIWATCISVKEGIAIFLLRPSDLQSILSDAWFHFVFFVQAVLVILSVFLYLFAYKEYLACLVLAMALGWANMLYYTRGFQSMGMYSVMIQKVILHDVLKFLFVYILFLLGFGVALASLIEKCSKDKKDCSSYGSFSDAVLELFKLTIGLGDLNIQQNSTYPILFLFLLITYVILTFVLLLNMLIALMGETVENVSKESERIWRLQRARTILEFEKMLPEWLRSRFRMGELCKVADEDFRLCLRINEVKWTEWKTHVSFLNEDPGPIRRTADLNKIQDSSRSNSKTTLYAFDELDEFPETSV", "assay": "Whole-cell voltage-clamp, TRPV3-YFP expressing HEK293 cells", "type": "cell-based", "conditions": "IA 200 μM; 2-APB 100 μM; charge −85 to −45 mV", "description": "Electrophysiological recording. Currents were recorded using whole-cell voltage-clamp. Pipettes were pulled from microcapillary glass (A-M Systems). A coverslip containing cells was transferred to a 300 μL chamber that was constantly perfused (1-2 mL/min) with external solution. Voltage protocols were generated and data were digitized and recorded using Pulse (HEKA Elektronik) software in conjunction with an Axopatch 200A amplifier (Axon Instruments), and the data analyzed using an in-house Visual Basic (Microsoft) analysis program.\nThe external solution contained (in mM): 120 NaCl, 5 KCl, 1 MgCl2, 2 CaCl2, 10 Glucose and 20 HEPES, pH 7.4 with NaOH. The measured charge (pC) was defined as the charge elicited between -85 and -45 mV by a ramping voltage stimulus (−85 mV to +35 mV, 0.54 mV/msec; holding potential -55 mV). Currents were sampled at 5 kHz. Experimental and control cells were alternated whenever possible. Control values were obtained from adjacent cells with no detectable YFP fluorescence, presumed to be non-TRPV3-expressing."}}, "data": [{"compound": "CC(=O)OC1CC/C(C)=C/CC/C(C)=C/CC2(C(C)C)CCC1(C)O2", "note": "(centres unmarked) [IA, incensole acetate]", "values": [{"measurement": "immobility in the Porsolt forced-swim test", "setting": "immobility", "value": "significantly reduced the immobility"}, {"measurement": "c-Fos in the central nucleus of the amygdala", "setting": "c-Fos", "value": "significantly increased c-Fos"}, {"measurement": "c-Fos in the hippocampal CA3 region", "setting": "c-Fos", "value": "significantly reducing c-Fos"}, {"measurement": "c-Fos in the lateral septum", "setting": "c-Fos", "value": "significantly increased c-Fos"}, {"measurement": "c-Fos in the medial striatum", "setting": "c-Fos", "value": "significantly reducing c-Fos"}, {"measurement": "c-Fos in the motor cortex", "setting": "c-Fos", "value": "significantly reducing c-Fos"}, {"measurement": "c-Fos in the solitary nucleus", "setting": "c-Fos", "value": "significantly increased c-Fos"}, {"measurement": "current activation in TRPV3(+) HEK293 cells", "setting": "mouse TRPV3-YFP", "value": "activation of currents"}]}]}
